Source: patent US4937360A, “N-substituted amide derivatives useful for treating liver diseases” (Taisho Pharmaceutical Co., Ltd., priority 1988, dated 1990)

Assays:
[1] = test system: acute liver injury induced by D-galactosamine; experiment: Effect on acute liver injury induced by D-galactosamine (serum GPT); type: in vivo, male Wister strain rats; settings: oral, rats, 18 hours; for GPT: mean ± S.E.; for Inhibition %: serum GPT vs control
Experimental: (§1) Effect on acute liver injury induced by D-galactosamine Six male Wister strain rats (eight weeks old, about 200 g of body weight) per group were used for the test. Suspensions of the compound, obtained in Example 1, in 5% gum arabic solution in various concentrations were prepared for test drugs. A 5% gum arabic solution was used as a control. The test drugs and a 5% gum arabic solution were each administered orally in an amount of 5 ml/kg of body weight to different animals. After standing for 18 hours, the animals were anesthetized with ether, the blood was drawn and centrifuged for measuring the serum GPT value. Malotilate served as a comparative test drug.

[2] = test system: acute liver injury induced by carbon tetrachloride; experiment: Effect on acute liver injury induced by carbon tetrachloride (serum GPT); type: in vivo, male ICR strain mice; settings: oral, mice, 18 hours; for GPT: mean ± S.E.; for Inhibition %: serum GPT vs control
Experimental: as §1, with “by carbon tetrachloride Ten” for “by D-galactosamine Six”, “male ICR” for “male Wister”, “strain mice (six” for “strain rats (eight”, “about 30” for “about 200”, “of 10” for “of 5”

| Structure (SMILES) | GPT ([1]; 30 mg/kg) | Inhibition % ([1]; 30 mg/kg) | GPT ([1]; 100 mg/kg) | Inhibition % ([1]; 100 mg/kg) | GPT ([1]; 300 mg/kg) | Inhibition % ([1]; 300 mg/kg) | GPT ([2]; 10 mg/kg) | Inhibition % ([2]; 10 mg/kg) | GPT ([2]; 30 mg/kg) | Inhibition % ([2]; 30 mg/kg) | GPT ([2]; 100 mg/kg) | Inhibition % ([2]; 100 mg/kg) |
| --- | --- | --- | --- | --- | --- | --- | --- | --- | --- | --- | --- | --- |
| CC(C)OC(=O)C(C(=O)OC(C)C)=C1SC=CS1 [B, Malotilate] | 19240 ± 1183 IU/1 | 6.4% | 11190 ± 777 IU/1 | 45.6% | 15557 ± 1669 IU/1 | 24.6% | 4291 ± 1012 IU/1 | 28% | 1778 ± 310 IU/1 | 71% | 148 ± 40 IU/1 | 98% |
| CC(=O)N(C)CC(=O)c1ccc2c(c1)OCO2 [A, N-methyl-N-(3,4-methylenedioxyphenacyl)acetamide] | 15972 ± 2810 IU/1 | 22.5% | 7440 ± 757 IU/1 | 64.1% | 4415 ± 1539 IU/1 | 78.8% | 2634 ± 380 IU/1 | 56% | 636 ± 245 IU/1 | 89% | 39 ± 3 IU/1 | 100% |
